Source: the kinase profiling compilation of Christmann-Franck et al. (2016)

Key:
Assay in all cases: KINOMEscan competition binding
Settings in all cases: compound 10.0 µM
[1] = biological target: PTK2 (human) (UniProt Q05397)
[2] = biological target: CLK3 (human) (UniProt P49761)
[3] = biological target: MATK (human) (UniProt P42679)
[4] = biological target: CAMK2A (human) (UniProt Q9UQM7)
[5] = biological target: SNRK (human) (UniProt Q9NRH2)
[6] = biological target: CDC42BPB (human) (UniProt Q9Y5S2)
[7] = biological target: CRK2 (P.falciparum) (UniProt P61075)
[8] = tested on: RET (human), P07949 [M918T]
[9] = biological target: MYO3A (human) (UniProt Q8NEV4)
[10] = biological target: MKNK1 (human) (UniProt Q9BUB5)
[11] = biological target: IRAK3 (human) (UniProt Q9Y616)
[12] = biological target: CSNK1E (human) (UniProt P49674)
[13] = biological target: CSNK1A1 (human) (UniProt P48729)
[14] = biological target: GRK4 (human) (UniProt P32298)
[15] = biological target: WEE1 (human) (UniProt P30291)
[16] = biological target: FGFR3 (human) (UniProt P22607)
[17] = biological target: MLTK (human) (UniProt Q9NYL2)
[18] = biological target: RPS6KA1 KD1 (human) (UniProt Q15418)
[19] = biological target: ROCK1 (human) (UniProt Q13464)
[20] = biological target: CLK1 (human) (UniProt P49759)
[21] = biological target: PKN3 (M.tuberculosis) (UniProt Q6P5Z2)
[22] = biological target: BRSK2 (human) (UniProt Q8IWQ3)
[23] = biological target: VRK2 (human) (UniProt Q86Y07)
[24] = biological target: MAPK6 (human) (UniProt Q16659)
[25] = biological target: MAP4K1 (human) (UniProt Q92918)
[26] = biological target: CSNK1G1 (human) (UniProt Q9HCP0)
[27] = biological target: EPHA3 (human) (UniProt P29320)
[28] = biological target: FGR (human) (UniProt P09769)
[29] = biological target: PKN1 (human) (UniProt Q16512)
[30] = biological target: CAMKK1 (human) (UniProt Q8N5S9)
[31] = biological target: TAOK3 (human) (UniProt Q9H2K8)
[32] = biological target: MAP3K9 (human) (UniProt P80192)
[33] = biological target: GRK1 (human) (UniProt Q15835)
[34] = biological target: MAP3K13 (human) (UniProt O43283)
[35] = biological target: TSSK1B (human) (UniProt Q9BXA7)
[36] = biological target: INSR (human) (UniProt P06213)
[37] = biological target: CDC42BPA (human) (UniProt Q5VT25)
[38] = biological target: MKNK2 (human) (UniProt Q9HBH9)
[39] = biological target: MAPK14 (human) (UniProt Q16539)
[40] = biological target: MAP3K6 (human) (UniProt O95382)
Chain of MAP3K6 (human) (O95382 whole entry, looked up): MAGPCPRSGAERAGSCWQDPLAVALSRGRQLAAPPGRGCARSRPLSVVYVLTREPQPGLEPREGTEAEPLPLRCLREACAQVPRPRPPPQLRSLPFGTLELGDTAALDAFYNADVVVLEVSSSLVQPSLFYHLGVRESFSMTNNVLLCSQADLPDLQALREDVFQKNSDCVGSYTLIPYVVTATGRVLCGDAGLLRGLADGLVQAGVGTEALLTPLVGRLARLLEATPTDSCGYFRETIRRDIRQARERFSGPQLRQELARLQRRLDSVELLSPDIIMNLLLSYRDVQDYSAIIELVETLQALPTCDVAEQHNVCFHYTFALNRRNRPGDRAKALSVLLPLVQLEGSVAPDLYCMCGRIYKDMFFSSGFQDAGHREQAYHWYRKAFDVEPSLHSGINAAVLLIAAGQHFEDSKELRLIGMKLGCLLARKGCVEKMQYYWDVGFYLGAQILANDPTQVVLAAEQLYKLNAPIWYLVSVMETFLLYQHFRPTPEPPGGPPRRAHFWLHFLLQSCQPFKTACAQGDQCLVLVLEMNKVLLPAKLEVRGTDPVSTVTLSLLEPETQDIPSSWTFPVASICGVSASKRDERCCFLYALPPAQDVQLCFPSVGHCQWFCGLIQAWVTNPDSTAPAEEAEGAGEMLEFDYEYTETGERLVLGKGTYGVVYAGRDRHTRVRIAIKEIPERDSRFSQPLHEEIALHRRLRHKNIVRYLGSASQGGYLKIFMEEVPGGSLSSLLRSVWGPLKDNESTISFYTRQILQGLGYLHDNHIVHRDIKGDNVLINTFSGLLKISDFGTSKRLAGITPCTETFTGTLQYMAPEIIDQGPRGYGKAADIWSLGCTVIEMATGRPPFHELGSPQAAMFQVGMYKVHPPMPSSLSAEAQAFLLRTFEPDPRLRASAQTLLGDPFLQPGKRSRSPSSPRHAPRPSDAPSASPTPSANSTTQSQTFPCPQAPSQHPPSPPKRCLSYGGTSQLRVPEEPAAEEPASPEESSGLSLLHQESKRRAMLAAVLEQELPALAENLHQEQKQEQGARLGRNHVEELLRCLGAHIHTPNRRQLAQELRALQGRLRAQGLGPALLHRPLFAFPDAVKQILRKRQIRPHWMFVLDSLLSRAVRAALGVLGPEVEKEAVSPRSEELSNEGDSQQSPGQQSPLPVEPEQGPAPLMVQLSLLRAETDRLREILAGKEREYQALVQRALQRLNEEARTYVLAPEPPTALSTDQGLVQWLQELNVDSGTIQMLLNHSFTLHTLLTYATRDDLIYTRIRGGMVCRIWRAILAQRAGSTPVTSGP

Chain of MKNK2 (human) (Q9HBH9 whole entry, looked up): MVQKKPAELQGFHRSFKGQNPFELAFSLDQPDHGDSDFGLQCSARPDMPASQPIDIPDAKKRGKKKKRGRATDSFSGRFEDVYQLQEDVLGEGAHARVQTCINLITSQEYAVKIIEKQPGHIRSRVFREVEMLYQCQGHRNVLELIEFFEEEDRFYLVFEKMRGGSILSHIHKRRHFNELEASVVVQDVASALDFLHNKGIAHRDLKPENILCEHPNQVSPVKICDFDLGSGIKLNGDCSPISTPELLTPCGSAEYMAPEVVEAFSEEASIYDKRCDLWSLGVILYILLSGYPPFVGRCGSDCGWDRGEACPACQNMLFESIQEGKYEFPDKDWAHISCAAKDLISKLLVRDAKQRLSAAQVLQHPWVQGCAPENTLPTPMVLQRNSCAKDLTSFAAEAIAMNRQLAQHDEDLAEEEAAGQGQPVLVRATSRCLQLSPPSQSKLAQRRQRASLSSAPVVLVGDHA
Chain of MAPK14 (human) (Q16539 whole entry, looked up): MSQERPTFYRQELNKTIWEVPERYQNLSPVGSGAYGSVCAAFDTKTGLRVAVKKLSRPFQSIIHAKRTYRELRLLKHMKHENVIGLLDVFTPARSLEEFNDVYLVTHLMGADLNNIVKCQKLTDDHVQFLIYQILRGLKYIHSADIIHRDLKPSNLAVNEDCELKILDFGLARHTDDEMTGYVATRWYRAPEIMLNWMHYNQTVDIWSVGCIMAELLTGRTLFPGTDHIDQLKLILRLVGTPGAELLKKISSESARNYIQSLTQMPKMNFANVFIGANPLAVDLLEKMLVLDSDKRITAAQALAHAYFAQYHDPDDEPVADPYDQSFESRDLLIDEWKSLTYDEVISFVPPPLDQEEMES
Chain of MAPK6 (human) (Q16659 whole entry, looked up): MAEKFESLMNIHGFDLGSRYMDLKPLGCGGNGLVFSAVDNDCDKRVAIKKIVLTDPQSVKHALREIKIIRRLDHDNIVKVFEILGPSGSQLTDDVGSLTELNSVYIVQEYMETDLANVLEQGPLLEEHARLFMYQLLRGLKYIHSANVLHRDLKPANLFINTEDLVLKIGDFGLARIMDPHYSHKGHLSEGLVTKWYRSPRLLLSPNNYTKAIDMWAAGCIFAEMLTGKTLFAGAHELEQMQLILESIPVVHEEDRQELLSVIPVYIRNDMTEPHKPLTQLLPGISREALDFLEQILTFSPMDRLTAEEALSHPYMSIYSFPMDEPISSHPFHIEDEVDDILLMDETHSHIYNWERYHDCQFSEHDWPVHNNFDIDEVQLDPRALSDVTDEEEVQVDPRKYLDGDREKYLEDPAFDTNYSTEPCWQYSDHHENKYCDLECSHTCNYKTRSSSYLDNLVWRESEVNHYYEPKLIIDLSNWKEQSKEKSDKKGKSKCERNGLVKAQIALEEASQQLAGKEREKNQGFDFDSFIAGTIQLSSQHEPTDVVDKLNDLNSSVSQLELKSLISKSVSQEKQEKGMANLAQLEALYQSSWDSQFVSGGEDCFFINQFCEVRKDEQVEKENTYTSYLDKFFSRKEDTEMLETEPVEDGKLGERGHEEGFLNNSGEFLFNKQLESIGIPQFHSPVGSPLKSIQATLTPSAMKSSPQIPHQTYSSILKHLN
Chain of CSNK1A1 (human) (P48729 whole entry, looked up): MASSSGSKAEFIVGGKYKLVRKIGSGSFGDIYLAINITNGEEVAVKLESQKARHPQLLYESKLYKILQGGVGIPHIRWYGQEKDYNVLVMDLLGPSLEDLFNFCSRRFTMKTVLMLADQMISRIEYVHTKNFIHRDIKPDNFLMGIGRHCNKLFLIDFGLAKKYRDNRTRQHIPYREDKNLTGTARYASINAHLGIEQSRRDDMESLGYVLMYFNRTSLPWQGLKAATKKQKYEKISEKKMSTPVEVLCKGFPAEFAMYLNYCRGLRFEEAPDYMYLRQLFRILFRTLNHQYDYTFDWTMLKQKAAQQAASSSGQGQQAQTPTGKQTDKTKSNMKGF
Chain of MAP3K13 (human) (O43283 whole entry, looked up): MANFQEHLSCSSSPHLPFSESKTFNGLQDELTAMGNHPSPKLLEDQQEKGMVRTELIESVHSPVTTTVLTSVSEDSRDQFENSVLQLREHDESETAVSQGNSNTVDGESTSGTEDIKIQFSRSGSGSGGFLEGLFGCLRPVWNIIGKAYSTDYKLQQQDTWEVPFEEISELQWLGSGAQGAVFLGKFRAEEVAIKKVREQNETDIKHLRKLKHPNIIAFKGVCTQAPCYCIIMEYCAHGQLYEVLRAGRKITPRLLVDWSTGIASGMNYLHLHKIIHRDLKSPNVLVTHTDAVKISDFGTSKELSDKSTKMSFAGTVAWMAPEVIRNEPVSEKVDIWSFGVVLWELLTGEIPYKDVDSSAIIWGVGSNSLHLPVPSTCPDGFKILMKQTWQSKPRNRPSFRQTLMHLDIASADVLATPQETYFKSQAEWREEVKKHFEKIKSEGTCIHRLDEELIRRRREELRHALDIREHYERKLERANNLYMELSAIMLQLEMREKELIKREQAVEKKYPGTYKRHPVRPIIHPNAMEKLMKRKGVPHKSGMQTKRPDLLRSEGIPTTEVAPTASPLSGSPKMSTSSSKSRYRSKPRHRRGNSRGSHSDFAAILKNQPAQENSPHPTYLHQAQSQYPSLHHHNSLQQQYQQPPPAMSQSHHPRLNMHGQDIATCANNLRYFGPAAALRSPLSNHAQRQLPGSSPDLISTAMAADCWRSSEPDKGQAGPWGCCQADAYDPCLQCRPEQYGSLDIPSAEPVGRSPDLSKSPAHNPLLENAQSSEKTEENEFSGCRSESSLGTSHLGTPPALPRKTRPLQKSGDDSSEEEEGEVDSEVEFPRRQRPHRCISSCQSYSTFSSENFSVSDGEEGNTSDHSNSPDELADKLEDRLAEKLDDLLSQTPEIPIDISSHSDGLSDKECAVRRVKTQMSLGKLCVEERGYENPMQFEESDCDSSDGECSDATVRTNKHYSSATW
Chain of MATK (human) (P42679 whole entry, looked up): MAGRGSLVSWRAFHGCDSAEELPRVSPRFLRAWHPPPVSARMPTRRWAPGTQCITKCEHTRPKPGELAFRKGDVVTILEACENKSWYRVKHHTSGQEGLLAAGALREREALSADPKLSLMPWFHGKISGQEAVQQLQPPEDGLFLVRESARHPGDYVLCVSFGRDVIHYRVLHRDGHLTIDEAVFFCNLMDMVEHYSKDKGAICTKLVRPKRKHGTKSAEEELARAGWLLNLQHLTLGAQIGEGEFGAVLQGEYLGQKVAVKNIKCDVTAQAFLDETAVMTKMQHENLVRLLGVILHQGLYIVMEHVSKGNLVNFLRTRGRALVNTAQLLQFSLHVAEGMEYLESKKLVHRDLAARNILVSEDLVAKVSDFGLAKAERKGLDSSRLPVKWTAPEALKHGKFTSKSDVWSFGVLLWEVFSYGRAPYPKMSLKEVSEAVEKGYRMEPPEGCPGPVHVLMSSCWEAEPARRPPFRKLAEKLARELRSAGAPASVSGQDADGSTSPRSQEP
Chain of CRK2 (P.falciparum) (P61075 whole entry, looked up): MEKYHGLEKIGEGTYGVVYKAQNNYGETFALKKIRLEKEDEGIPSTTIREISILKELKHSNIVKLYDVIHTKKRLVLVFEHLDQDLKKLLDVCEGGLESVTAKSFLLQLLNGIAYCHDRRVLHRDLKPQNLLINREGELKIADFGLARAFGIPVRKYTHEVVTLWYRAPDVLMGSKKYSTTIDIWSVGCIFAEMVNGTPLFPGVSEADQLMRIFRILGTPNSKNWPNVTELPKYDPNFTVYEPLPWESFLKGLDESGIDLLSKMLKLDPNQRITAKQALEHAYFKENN

Structure (SMILES) | kinase still bound, per cent of control [1] [%] | kinase still bound, per cent of control [3] [%] | kinase still bound, per cent of control [4] [%] | kinase still bound, per cent of control [5] [%] | kinase still bound, per cent of control [6] [%] | kinase still bound, per cent of control [7] [%] | kinase still bound, per cent of control [9] [%] | kinase still bound, per cent of control [10] [%] | kinase still bound, per cent of control [11] [%] | kinase still bound, per cent of control [12] [%] | kinase still bound, per cent of control [13] [%] | kinase still bound, per cent of control [14] [%] | kinase still bound, per cent of control [15] [%] | kinase still bound, per cent of control [16] [%] | kinase still bound, per cent of control [17] [%] | kinase still bound, per cent of control [19] [%] | kinase still bound, per cent of control [20] [%] | kinase still bound, per cent of control [21] [%] | kinase still bound, per cent of control [22] [%] | kinase still bound, per cent of control [23] [%] | further results
O=c1cc(N2CCOCC2)oc2c(-c3cccc4c3sc3ccccc34)cccc12 | 70 | 99 | 78 | 73 | 88 | 100 | 89 | 100 | 41 | 76 | 78 | 100 | 100 | 80 | 93 | 100 | 89 | 6.6 | 100 | 100 | kinase still bound, per cent of control [2]: 100%; kinase still bound, per cent of control [8]: 98%; kinase still bound, per cent of control [18]: 100%; kinase still bound, per cent of control [24]: 100%; kinase still bound, per cent of control [25]: 90%; kinase still bound, per cent of control [26]: 92%; kinase still bound, per cent of control [27]: 91%; kinase still bound, per cent of control [28]: 92%; kinase still bound, per cent of control [29]: 100%; kinase still bound, per cent of control [30]: 85%; kinase still bound, per cent of control [31]: 97%; kinase still bound, per cent of control [32]: 100%; kinase still bound, per cent of control [33]: 100%; kinase still bound, per cent of control [34]: 100%; kinase still bound, per cent of control [35]: 83%; kinase still bound, per cent of control [36]: 66%; kinase still bound, per cent of control [37]: 94%; kinase still bound, per cent of control [38]: 87%; kinase still bound, per cent of control [39]: 98%; kinase still bound, per cent of control [40]: 100%
CNC(=O)c1cc(Oc2ccc(NC(=O)Nc3ccc(Cl)c(C(F)(F)F)c3)cc2)ccn1 | 99 | 100 | 94 | 100 | 100 | 94 | 67 | 2.1 | 81 | 100 | 100 | 100 | 100 | 31 | 4.2 | 74 | 23 | 100 | 85 | 100 | kinase still bound, per cent of control [2]: 91%; kinase still bound, per cent of control [8]: 0.1%; kinase still bound, per cent of control [18]: 82%; kinase still bound, per cent of control [24]: 100%; kinase still bound, per cent of control [25]: 41%; kinase still bound, per cent of control [26]: 100%; kinase still bound, per cent of control [28]: 53%; kinase still bound, per cent of control [29]: 99%; kinase still bound, per cent of control [30]: 89%; kinase still bound, per cent of control [31]: 0.8%; kinase still bound, per cent of control [32]: 88%; kinase still bound, per cent of control [33]: 100%; kinase still bound, per cent of control [34]: 100%; kinase still bound, per cent of control [35]: 78%; kinase still bound, per cent of control [36]: 100%; kinase still bound, per cent of control [37]: 95%; kinase still bound, per cent of control [38]: 0.1%; kinase still bound, per cent of control [39]: 0.2%; kinase still bound, per cent of control [40]: 100%
C[C@@H](Oc1cc(-c2cnn(C3CCNCC3)c2)cnc1N)c1c(Cl)ccc(F)c1Cl | 0 | 64 | 100 | 100 | 62 | 95 | 66 | 100 | 0.95 | 100 | 61 | 14 | 100 | 22 | 100 | 4 | 84 | 30 | 65 | 100 | kinase still bound, per cent of control [24]: 90%; kinase still bound, per cent of control [25]: 4.6%; kinase still bound, per cent of control [26]: 100%; kinase still bound, per cent of control [27]: 11%; kinase still bound, per cent of control [28]: 6.8%; kinase still bound, per cent of control [29]: 38%; kinase still bound, per cent of control [30]: 60%; kinase still bound, per cent of control [31]: 1.4%; kinase still bound, per cent of control [32]: 80%; kinase still bound, per cent of control [33]: 92%; kinase still bound, per cent of control [34]: 10%; kinase still bound, per cent of control [35]: 40%; kinase still bound, per cent of control [36]: 0.2%; kinase still bound, per cent of control [37]: 43%; kinase still bound, per cent of control [38]: 11%; kinase still bound, per cent of control [39]: 100%; kinase still bound, per cent of control [40]: 87%
COc1cc2ncn(-c3cc(OCc4ccccc4C(F)(F)F)c(C(N)=O)s3)c2cc1OC | 83 | 85 | 76 | 83 | 64 | 93 | 81 | 88 | 67 | 77 | 60 | 18 | 83 | 20 | 74 | 4.7 | 36 | 76 | 31 | 87 | kinase still bound, per cent of control [2]: 83%; kinase still bound, per cent of control [8]: 8%; kinase still bound, per cent of control [18]: 96%; kinase still bound, per cent of control [24]: 64%; kinase still bound, per cent of control [25]: 44%; kinase still bound, per cent of control [26]: 86%; kinase still bound, per cent of control [28]: 63%; kinase still bound, per cent of control [29]: 76%; kinase still bound, per cent of control [31]: 89%; kinase still bound, per cent of control [32]: 71%; kinase still bound, per cent of control [33]: 96%; kinase still bound, per cent of control [34]: 100%; kinase still bound, per cent of control [36]: 84%; kinase still bound, per cent of control [37]: 68%; kinase still bound, per cent of control [38]: 76%; kinase still bound, per cent of control [39]: 100%; kinase still bound, per cent of control [40]: 84%
